Experimental data: patent US10385047B2, “Histone demethylase inhibitors” (CELGENE QUANTICEL RESEARCH, INC., priority 2014, dated 2019)
pIC50: −log10 of the molar value.

Legend:
JMJD2C = molecular target: T1, JMJD2C (Homo sapiens, UniProt Q9H3R0); assay: In vitro enzyme inhibition assay for JMJD2C activity (TR-FRET); type: biochemical
T1 construct: purchased BPS Bioscience 50105; host or cells: baculovirus expression system (insect cells)
T1 sequence (Q9H3R0 2-372): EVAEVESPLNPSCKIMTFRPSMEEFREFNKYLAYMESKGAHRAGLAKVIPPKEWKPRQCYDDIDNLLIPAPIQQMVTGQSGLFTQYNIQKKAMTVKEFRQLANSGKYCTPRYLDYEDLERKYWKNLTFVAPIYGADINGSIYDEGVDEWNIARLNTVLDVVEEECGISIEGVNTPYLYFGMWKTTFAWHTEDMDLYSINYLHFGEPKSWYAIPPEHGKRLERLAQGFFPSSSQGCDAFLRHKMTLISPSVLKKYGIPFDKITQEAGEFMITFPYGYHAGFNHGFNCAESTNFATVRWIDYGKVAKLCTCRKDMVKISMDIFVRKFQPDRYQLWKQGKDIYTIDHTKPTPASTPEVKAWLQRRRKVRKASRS
Method: This assay determines the ability of a test compound to inhibit JMJD2C demethylase activity. Baculovirus expressed JMJD2C (GenBank Accession #BC143571, AA 2-372) was purchased from BPS Bioscience (Cat#50105).
The ability of test compounds to inhibit the activity of JMJD2C was determined in 384-well plate format under the following reaction conditions: 0.3 nM JMJD2C, 300 nM H3K9me3-biotin labeled peptide (Anaspec cat #64360), 2 μM alpha-ketoglutaric acid in assay buffer of 50 mM HEPES, pH7.3, 0.005% Brij35, 0.5 mM TCEP, 0.2 mg/ml BSA, 50 μM sodium L-ascorbate, and 2 μM ammonium iron(II) sulfate. Reaction product was determined quantitatively by TR-FRET after the addition of detection reagent Phycolink Streptavidin-allophycocyanin (Prozyme) and Europium-anti-di-methylated histone H3 lysine 9 (H3K9me2) antibody (PerkinElmer) in the presence of 5 mM EDTA in LANCE detection buffer (PerkinElmer) at a final concentration of 50 nM and 1 nM, respectively.
The assay reaction was initiated by the following: 2 μl of the mixture of 900 nM H3K9me3-biotin labeled peptide and 6 μM alpha-ketoglutaric acid with 2 μl of 11-point serial diluted inhibitor in 3% DMSO were added to each well of the plate, followed by the addition of 2 μl of 0.9 nM JMJD2C to initiate the reaction. The reaction mixture was incubated at room temperature for 30 minutes, and terminated by the addition of 6 μl of 5 mM EDTA in LANCE detection buffer containing 100 nM Phycolink Streptavidin-allophycocyanin and 2 nM Europium-anti-H3K9me2 antibody. Plates were read by EnVisionMultilabel Reader in TR-FRET mode (excitation at 320 nm, emission at 615 nm and 665 nm) after 1 hour incubation at room temperature. A ratio was calculated (665/615) for each well and fitted to determine inhibition constant (IC50).

JMJD3 = molecular target: T2, JMJD3 (Homo sapiens, UniProt O15054); assay: In vitro enzyme inhibition assay for JMJD3 activity (TR-FRET); type: biochemical; details: enzymatic assay conditions described herein
T2 construct: purchased BPS Bioscience 50115; host or cells: baculovirus expression system (insect cells)
T2 sequence (O15054 1043-1682 isoform O15054-1): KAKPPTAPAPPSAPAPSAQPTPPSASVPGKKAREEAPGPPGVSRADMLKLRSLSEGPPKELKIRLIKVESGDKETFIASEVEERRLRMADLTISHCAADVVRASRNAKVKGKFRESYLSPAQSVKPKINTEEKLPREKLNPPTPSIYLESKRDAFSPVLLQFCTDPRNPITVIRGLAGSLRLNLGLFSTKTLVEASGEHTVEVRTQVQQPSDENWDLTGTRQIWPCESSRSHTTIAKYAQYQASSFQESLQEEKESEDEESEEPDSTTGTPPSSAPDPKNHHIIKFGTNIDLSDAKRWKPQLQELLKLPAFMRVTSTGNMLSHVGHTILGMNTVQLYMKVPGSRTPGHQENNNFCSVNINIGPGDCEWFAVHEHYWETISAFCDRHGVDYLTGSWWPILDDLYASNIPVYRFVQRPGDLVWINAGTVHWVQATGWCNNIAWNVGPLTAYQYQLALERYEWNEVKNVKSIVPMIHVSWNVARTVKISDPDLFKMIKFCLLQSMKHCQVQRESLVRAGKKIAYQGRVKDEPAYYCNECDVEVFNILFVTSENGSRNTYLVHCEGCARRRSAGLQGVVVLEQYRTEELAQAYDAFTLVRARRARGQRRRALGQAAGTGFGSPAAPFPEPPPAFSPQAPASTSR
Method: This assay determines the ability of a test compound to inhibit JMJD3 demethylase activity. Baculovirus expressed JMJD3 (GenBank Accession #NM-001080424, AA1043-end) was purchased from BPS Bioscience (Cat#50115).
The enzymatic assay of JMJD3 activity is based upon Time Resolved-Fluorescence Resonance Energy Transfer (TR-FRET) detection. […] Reaction product was determined quantitatively by TR-FRET after the addition of detection reagent Phycolink Streptavidin-allophycocyanin (Prozyme) and Europium-anti-di-methylated histone H3 lysine 27 (H3K27me2) antibody (PerkinElmer) in the presence of 5 mM EDTA in LANCE detection buffer (PerkinElmer) at a final concentration of 50 nM and 1 nM, respectively.
The reaction mixture was incubated at room temperature for 30 minutes, and terminated by the addition of 6 μL of 5 mM EDTA in LANCE detection buffer containing 100 nM Phycolink Streptavidin-allophycocyanin and 2 nM Europium-anti-H3K27me2 antibody. Plates were read by EnVisionMultilabel Reader in TR-FRET mode (excitation at 320 nm, emission at 615 nm and 665 nm) after 1 hour incubation at room temperature. A ratio from the readout of 665/615 was calculated for each well and fitted to determine inhibition constant (IC50).

[1] = enzymatic assay conditions described herein
[2] = 0.3 nM JMJD2C, H3K9me3-biotin peptide, 2 μM alpha-ketoglutaric acid

SMILES	pIC50 (JMJD2C; [1])	pIC50 (JMJD3)	pIC50 (JMJD2C; [2])
O=C(O)c1ccncc1NC[C@@H]1CCOc2cc(C3CCCCC3)ccc21 [Example 35, 3-({[(4R)-7-cyclohexyl-3,4-dihydro-2H-1-benzopyran-4-yl]methyl}amino)pyridine-4-carboxylic Acid]			6.00 to 7.00
C[C@@H](O)c1ccc(N(C)c2ccc3c(c2)CCC[C@H]3CNc2cnccc2C(=O)O)cc1 (single isomer, unassigned) [Example 168]			6.00 to 7.00

The next lines start with the values.

pIC50 (JMJD2C; [1])	pIC50 (JMJD3)	pIC50 (JMJD2C; [2])	SMILES
6.02	7.72		O=C(O)c1ccncc1NC[C@H]1CCOc2cc(-c3ccccc3)ccc21 [Example 83 of U.S. Pat. No. 8,952,151, 3-({[(4S)-7-phenyl-3,4-dihydro-2H-1-benzopyran-4-yl]methyl}amino)pyridine-4-carboxylic acid]
		6.00 to 7.00	C[C@H](O)c1ccc(N(C)c2ccc3c(c2)CCC[C@H]3CNc2cnccc2C(=O)O)cc1 (single isomer, unassigned) [Example 169]
6.82	5.67		O=C(O)c1ccncc1NC[C@@H]1CCOc2cc(-c3ccccc3)ccc21 [Example 84 of U.S. Pat. No. 8,952,151, 3-({[(4R)-7-phenyl-3,4-dihydro-2H-1-benzopyran-4-yl]methyl}amino)pyridine-4-carboxylic acid]
